Experiment [1] relates to L. fermentum NCCB 46038. As to the kind of experiment: Soft-agar overlay screen of peptide-expressing yeast (BY4742).
For a further experiment, the system named is W. confusa CCUG30113. Described as above.
The next experiment relates to Lactobacillus amylovorus. As to the kind of experiment: Soft-agar overlay screen of peptide-expressing yeast, other lactic acid bacteria. Particulars: sometimes weak. It counts as cell-based.
Another experiment has as its system E. faecium NCCB 86023. Put plainly: Soft-agar overlay screen of peptide-expressing yeast (BY4742).
The subject of the next experiment is W. confusa CCUG30943. Described as above.
The next experiment relates to L. lactis NCCB 26066. Described as above.
The subject of another experiment is L. reuteri CCUG 32624. Described as above.
Experiment [2] relates to L. delbrueckii CCUG 34222. The description is as above.
A further experiment concerns Lactobacillus casei. As to the kind of experiment: Soft-agar overlay screen of peptide-expressing yeast, other lactic acid bacteria. It counts as cell-based. Particulars: sometimes weak.
Experiment [3] has as its system L. fermentum NCCB 46038. Put plainly: Soft-agar overlay assay of S. cerevisiae BY4742 secreting persulcatusin variants from pHVXU plasmids. Particulars: for Growth inhibition zones of L. fermentum: FIG. 7, BY4742 with pHVXU plasmids, 30° C., 1 day.
The subject of experiment [4] is P. pentosaceus NCCB 31016. As to the kind of experiment: Soft-agar overlay screen of peptide-expressing yeast (BY4742). Particulars: for Inhibition, P. pentosaceus NCCB 31016: soft-agar overlay, peptide-expressing yeast.
A further experiment deals with Lactobacillus plantarum. Put plainly: Soft-agar overlay screen of peptide-expressing yeast, other lactic acid bacteria. The class given is cell-based.
The test system of experiment [5] is Lactococcus lactis subsp. cremoris. The experiment is described as above. The class given is cell-based.
The subject of another experiment is Pediococcus acidilactici. The description is as above. It counts as cell-based.
Experiment [6] concerns Lactobacillus delbrueckii subsp. delbrueckii. Described as above. It counts as cell-based.
A further experiment concerns Pediococcus damnosus. Described as above. It counts as cell-based.
Experiment [7] has as its system Leuconostoc mesenteroides subsp. mesenteroides. The description is as above. It counts as cell-based.
For another experiment, the system named is Lactobacillus brevis. Described as above. The class given is cell-based.
A further experiment relates to L. fermentum CCUG 72619. It counts as cell-based, Lactobacillus fermentum.
The subject of a further experiment is P. pentosaceus. Put plainly: Small-scale mock ethanol fermentation contaminated with P. pentosaceus. The class given is cell-based, Pediococcus pentosaceus. Particulars: 72 hours; contamination OD600 0.00005-0.05; virginiamycin 2 mg/L. Here is the method: (§1) Small-scale mock ethanol fermentations were carried out in 2 mL microcentrifuge tubes with a venting hole in the cap made with a 30 gauge needle. Starter cultures of yeast were grown in YPD at 30° C. with agitation. Starter cultures of L. fermentum CCUG 72619 were grown in MRS at 37° C. without agitation. […] . Control fermentations contained 2 mg/L virginiamycin. The fermentations were incubated at 30° C. without agitation for 72 hours and then analyzed by HPLC.
(§2) . M2 wild-type with and without virginiamycin, M2-pPedA, M2-pPedA-K1A, M2-pPedA-K1A/T22A, and M2-pPedA-K1T were compared (FIGS. 14A-14D, 15A-15D). […] . The pediocin-expressing strains were not effective at completely preventing the lactic acid production by L. delbrueckii or P. pentosaceus. […] .

The next experiment concerns L. delbrueckii. As to the kind of experiment: Small-scale mock ethanol fermentation contaminated with L. delbrueckii. It counts as cell-based, Lactobacillus delbrueckii. Particulars: 72 hours; contamination OD600 0.00005-0.05; virginiamycin 2 mg/L. The procedure:
as §1, §2

We go through four substances from patent publication US12168763B2, “Microorganisms and methods for reducing bacterial contamination” (Melio Peptide Systems Inc., priority 2020, dated 2024).

“Engineered persulcatusin with [Mutation S7-192-1, Engineered persulcatusin with [F6L/G9D/R13S/H14Q]]”: in the experiment with L. fermentum NCCB 46038 [1], the “Inhibition, L. fermentum NCCB 46038” value was “+”. The “Inhibition, W. confusa CCUG30113” value with W. confusa CCUG30113 is reported as “+”. Further, the “Antibacterial activity against Lactobacillus amylovorus” value in the experiment with Lactobacillus amylovorus was “showed some antibacterial activity”. Also, in the experiment with E. faecium NCCB 86023, the “Inhibition, E. faecium NCCB 86023” value is “−”. Moreover, the “Inhibition, W. confusa CCUG30943” value in the experiment with W. confusa CCUG30943 is listed as “+”. Also, in the experiment with L. lactis NCCB 26066, the “Inhibition, L. lactis NCCB 26066” value is given as “−”. For the same substance, the “Inhibition, L. reuteri CCUG 32624” value with L. reuteri CCUG 32624 is listed as “+”. In addition, the “Inhibition, L. delbrueckii CCUG 34222” value in experiment [2] is listed as “−”. Also, the “Antibacterial activity against Lactobacillus casei” value with Lactobacillus casei is “showed some antibacterial activity”. The “Growth inhibition zones of L. fermentum” value in the experiment with L. fermentum NCCB 46038 [3] is given as “significantly bigger zones”. The “Increase in Activity” value in the experiment on L. fermentum NCCB 46038 [3] (random mutagenesis clones of persulcatusin, increase of growth inhibition zones) was “++++”. Moreover, the “Inhibition, P. pentosaceus NCCB 31016” value in [4] was “−”.
Turning to “Pediocin PA-1 from [Pediococcus acidilactici] (KYYGNGVTCGKHSCSVDWGKATTCIINNGAMAWATGGHQGNHKC; listed as Pediococcus acidilactici)”, the “Antibacterial activity against Lactobacillus plantarum” value in the experiment with Lactobacillus plantarum is “showed antibacterial activity”. Further, the “Antibacterial activity against Lactococcus lactis subsp. cremoris” value in [5] was “showed antibacterial activity”. In addition, in the experiment with Pediococcus acidilactici, the “Antibacterial activity against Pediococcus acidilactici” value is “showed antibacterial activity”. In experiment [6], the “Antibacterial activity against Lactobacillus delbrueckii subsp. delbrueckii” value is given as “showed antibacterial activity”. Moreover, the “Inhibition, W. confusa CCUG30113” value in the experiment on W. confusa CCUG30113 is given as “−”. For the same substance, in the experiment with Lactobacillus amylovorus, the “Antibacterial activity against Lactobacillus amylovorus” value is “showed some antibacterial activity”. The “Inhibition, E. faecium NCCB 86023” value in the experiment with E. faecium NCCB 86023 is “+”. In addition, the “Antibacterial activity against Pediococcus damnosus” value with Pediococcus damnosus is listed as “showed antibacterial activity”. Also, the “Inhibition, W. confusa CCUG30943” value with W. confusa CCUG30943 is on record as “−”. Further, in the experiment on L. lactis NCCB 26066, the “Inhibition, L. lactis NCCB 26066” value is on record as “+”. Also, the “Antibacterial activity against Leuconostoc mesenteroides subsp. mesenteroides” value in experiment [7] is “showed antibacterial activity”. In addition, in the experiment on L. reuteri CCUG 32624, the “Inhibition, L. reuteri CCUG 32624” value is listed as “−”. Moreover, the “Inhibition, L. delbrueckii CCUG 34222” value in [2] was “+”. Besides, the “Antibacterial activity against Lactobacillus casei” value with Lactobacillus casei is listed as “showed some antibacterial activity”. Moreover, the “Antibacterial activity against Lactobacillus brevis” value in the experiment on Lactobacillus brevis was “showed antibacterial activity”. For the same substance, the “Growth inhibition zones of P. pentosaceus” value in experiment [4] (FIG. 7, BY4742 with pHVXU-pedA, 30° C., 1 day) was “Growth inhibition zones of P. pentosaceus are observable”. Further, in experiment [4], the “Inhibition, P. pentosaceus NCCB 31016” value is “+”.
Regarding “Wild-type persulcatusin [Wild-type persulcatusin [Ixodes persulcatus]]”, the “Inhibition, L. fermentum NCCB 46038” value in the experiment on L. fermentum NCCB 46038 [1] was “+”. Moreover, the “Inhibition, W. confusa CCUG30113” value in the experiment on W. confusa CCUG30113 was “+”. In addition, the “Inhibition, E. faecium NCCB 86023” value in the experiment with E. faecium NCCB 86023 was “−”. For the same substance, the “Inhibition, W. confusa CCUG30943” value in the experiment with W. confusa CCUG30943 is on record as “−”. Besides, the “Inhibition, L. lactis NCCB 26066” value with L. lactis NCCB 26066 is reported as “−”. The “Inhibition, L. reuteri CCUG 32624” value in the experiment on L. reuteri CCUG 32624 is recorded as “−”. In addition, in experiment [2], the “Inhibition, L. delbrueckii CCUG 34222” value is reported as “−”. Besides, the “Growth inhibition zones of L. fermentum” value in the experiment with L. fermentum NCCB 46038 [3] is reported as “Growth inhibition zones of L. fermentum are observable”. The “Inhibition, P. pentosaceus NCCB 31016” value in experiment [4] is on record as “−”.
With virginiamycin, the “Variability in residual glucose” value in the experiment on L. fermentum CCUG 72619 is reported as “tended to be reduced”. The “Lactic acid production by P. pentosaceus” value in the experiment with P. pentosaceus was “effective at preventing the lactic acid production”. Moreover, the “Lactic acid production by L. delbrueckii” value with L. delbrueckii is “effective at preventing the lactic acid production”.
